Patent EP4741391A1, “NMT INHIBITOR, AND PREPARATION METHOD THEREFOR AND USE THEREOF” (Nanjing Synnocare Pharmaceutical Technology Co., Ltd., priority 2023, dated 2025)

Tests used:
NMT1 enzyme = molecular target: T1, NMT1 enzyme (Homo sapiens, UniProt P30419); assay: Inhibitory activity on NMT1 enzyme catalysis (fluorescence intensity, CPM probe); assay type: biochemical; settings: 6 nM NMT1 enzyme, 1.25 µM myristoyl-CoA, 20 µM HSPP60 SRC peptide, 45 minutes at 25 °C
T1 sequence (P30419 1-496): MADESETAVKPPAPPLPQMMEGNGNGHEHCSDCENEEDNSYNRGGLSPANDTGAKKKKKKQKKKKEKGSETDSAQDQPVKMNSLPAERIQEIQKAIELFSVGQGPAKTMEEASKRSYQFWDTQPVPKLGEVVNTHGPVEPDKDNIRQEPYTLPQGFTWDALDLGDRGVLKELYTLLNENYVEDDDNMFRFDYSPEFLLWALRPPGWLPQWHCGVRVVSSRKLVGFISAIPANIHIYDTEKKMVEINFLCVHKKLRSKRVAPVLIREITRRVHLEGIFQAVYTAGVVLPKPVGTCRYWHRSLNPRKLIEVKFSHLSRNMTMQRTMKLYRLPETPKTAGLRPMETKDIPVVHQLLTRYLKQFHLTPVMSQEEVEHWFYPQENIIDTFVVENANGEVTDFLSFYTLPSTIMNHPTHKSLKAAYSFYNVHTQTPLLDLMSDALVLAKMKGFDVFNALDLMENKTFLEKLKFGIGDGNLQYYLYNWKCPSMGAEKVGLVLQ
Procedure: This study evaluated the ability of the compounds of the invention to inhibit NMT1 catalytic activity in vitro. The experiment used a FI (Fluorescence Intensity) analysis method, characterizing NMT1 inhibitors under conditions of 1.25 µM myristoyl-CoA (Lithium salt, Sigma, M4414). In this experiment, a synthesized peptide with the sequence H-Gly-Ser-Asn-Lys-Ser-Lys-Pro-Lys-NH2, HSPP60SRC (Nanjing Peptide Industry, NJP23953), was used as the reaction substrate. The final concentration of the NMT1 enzyme was 6 nM, the final concentration of CPM (Reactive thiol fluorescence probe, Invitrogen, D346) was 1 µM, the final concentration of HSPP60 SRC was 20 µM, and the final concentration of DMSO was 0.5%.
Compounds were dissolved in DMSO to obtain 10 mM stock solutions. Dose-response solutions were prepared with a top endpoint compound concentration of 3 mM, followed by three-fold serial dilutions in DMSO, totaling ten data points. Using an ECHO acoustic liquid handler (BECKMAN, ECHO 655 system), 0.05 µL of the diluted compound solutions was transferred to a 384-well assay plate (Corning, CLS4514). Then, 2.5 µL of the NMT1 enzyme working solution was added to the 384-well assay plate, followed by incubation at 25 °C for 10 minutes. Subsequently, 5 µL of the CPM and myristoyl-CoA working solution was added, the plate was centrifuged at 1000 rpm for 1 minute, and then 2.5 µL of the HSPP60 SRC working solution was added to initiate the reaction. The reaction was incubated at 25 °C for 45 minutes. The FI signal ([…]; ex: 405 nm) was detected using an HTS high-throughput screening multifunctional microplate reader (BMG, PHERA star FSX).
The inhibition rate of the compounds on NMT1 enzyme catalytic activity was calculated using the following formula: Inhibition Percentage (%) = 100 * (Mean of DMSO group - Mean of Compound group) / (Mean of DMSO group - Mean of Blank control group). The IC50 curve of the compounds was fitted using the software XLfit 5.5.0 according to the nonlinear regression equation. Table 1 provides the inhibitory activity of the compounds of the invention on NMT1 enzyme catalysis.

MV-4-11 cells = assay: Anti-proliferative activity against MV-4-11 cells (three-day cell viability chemiluminescence); assay type: cell-based; settings: MV-4-11 human monocytic leukemia cells, three days of exposure
Procedure: This study utilized a cell proliferation assay to analyze the cytotoxicity of MV-4-11 human monocytic leukemia cells after three days of exposure to NMT1 inhibitors. The MV-4-11 cell line was purchased from Nanjing Cobuilder Biotechnology Co., Ltd., and cultured in IMDM medium (Viva cell) in an incubator (Thermo) at 37 °C with 5% CO2. In this experiment, NMT1 inhibitors were dissolved in DMSO to obtain 600 µM stock solutions. Dose-response solutions were prepared with a top endpoint compound concentration of 3 µM, followed by three-fold serial dilutions in DMSO, totaling eight data points. The final concentration of DMSO was 0.5%.
MV-4-11 cells were seeded into a white 96-well plate, 80 µL of cell suspension per well, containing 6000 MV-4-11 cells. The cell plate was placed in the CO2 incubator for overnight culture. Then, 20 µL of NMT1 inhibitor solutions at different concentrations were added to the wells. The 96-well plate was placed back into the incubator for three days. Another cell plate was prepared, and the signal was read on the day of drug addition to serve as the maximum value (Max value in the equation below) for data analysis. To this cell plate, 25 µL of cell viability chemiluminescence detection reagent was added per well, followed by incubation at room temperature for 10 minutes to stabilize the luminescence signal. A multi-label analyzer was used for reading.
The raw data were converted into inhibition rates using the equation (Sample - Min) / (Max - Min) * 100%. The IC50 values were then determined by fitting a four-parameter curve (using the "log(inhibitor) vs. response - Variable slope" model in GraphPad Prism). Min: wells treated with 0.5% DMSO; Max: Day 0 wells. Table 1 provides the inhibitory activity of the compounds of the invention on MV-4-11 cell proliferation. Table 1: Compound Inhibitory Activity against NMT1 Enzyme (IC50) and Anti-proliferative Activity against MV-4-11 Cells (IC50)

| Compound | IC50 (NMT1 enzyme) | IC50 (MV-4-11 cells; Homo sapiens, MV4-11, 72 h) | IC50 (MV-4-11 cells) |
| --- | --- | --- | --- |
| Cc1c(CCOc2ccc(F)cc2-c2ccn3ncc(CN(C)C)c3c2)c(C(=O)N(C)C)nn1C [Compound 6, 4-{2-[(2-{3-[(dimethylamino)methyl]pyrazolo[1,5-a]pyridin-5-yl}-4-fluorophenyl)oxy]ethyl}-1,5,N,N-tetrameth ylpyrazole-3-carboxamide] | 2.89 nM | 30.2 nM |  |
| Cc1c(CCOc2c(-c3ccn4ncc(CN(C)C)c4c3)ccc(F)c2F)c(C(=O)N(C)C)nn1C [Compound 7, 4-{2-[(6-{3-[(dimethylamino)methyl]pyrazolo[1,5-a]pyridin-5-yl}-2,3-difluorophenyl)oxy]ethyl}-1,5,N,N-tetram ethylpyrazole-3-carboxamide] | 2.1 nM | 19.4 nM |  |
| Cc1c(CCOc2c(-c3ccn4ncc(CN(C)C)c4c3)ccc(Cl)c2F)c(C(=O)N(C)C)nn1C [Compound 8, 4-{2-[(3-chloro-6-{3-[(dimethylamino)methyl]pyrazolo[1,5-a]pyridin-5-yl}-2-fluorophenyl)oxy]ethyl}-1,5,N,N-tetramethylpyrazole-3-carboxamide] | 2.89 nM | 28.4 nM |  |
| Cc1c(CCOc2c(-c3ccn4ncc(CN(C)C)c4c3)ccc(Cl)c2Cl)c(C(=O)N(C)C)nn1C [Compound 9, 4-{2-[(2,3-dichloro-6-{3-[(dimethylamino)methyl]pyrazolo[1,5-a]pyridin-5-yl}phenyl)oxy]ethyl}-1,5,N,N-tetra methylpyrazole-3-carboxamide] | 3.68 nM | 32.5 nM |  |
| Cc1c(CCOc2c(F)cc(F)cc2-c2ccn3ncc(CN(C)C)c3c2)c(C(=O)N(C)C)nn1C [Compound 10, 4-{2-[(6-{3-[(dimethylamino)methyl]pyrazolo[1,5-a]pyridin-5-yl}-2,4-difluorophenyl)oxy]ethyl}-1,5,N,N-tetram ethylpyrazole-3-carboxamide] | 2.59 nM | 26.4 nM |  |
| Cc1c(COc2cc(Cl)ccc2-c2ccn3ncc(CN(C)C)c3c2)c(C(=O)N(C)C)nn1C [Compound 11, 4-{[(5-chloro-2-{3-[(dimethylamino)methyl]pyrazolo[1,5-a]pyridin-5-yl}phenyl)oxy]methyl}-1,5,N,N-tetrameth ylpyrazole-3-carboxamide] | 6.31 nM | 58.7 nM |  |
| Cc1c(CCOc2cc(Cl)ccc2-c2ccn3ncc(CN(C)C)c3c2)c(CO)nn1C [Compound 12, (4-{2-[(5-chloro-2-{3-[(dimethylamino)methyl]-pyrazolo [1,5-a]pyridin-5-yl}phenyl)oxy]ethyl}-1,5-dimethylpyrazol-3-yl)methanol] | 3.67 nM | 31.7 nM |  |
| Cc1c(CCOc2cc(Cl)ccc2-c2ccn3ncc(CN(C)C)c3c2)c(C#N)nn1C [Compound 13, 4-{2-[(5-chloro-2-{3-[(dimethylamino)methyl]pyrazolo[1,5-a]pyridin-5-yl}phenyl)oxy]ethyl}-1,5-dimethylpyrazole-3-carbonitrile] | 2.79 nM | 23.2 nM |  |
| Cc1nn(C)c(C)c1CCOc1cc(Cl)ccc1-c1ccn2ncc(CN(C)C)c2c1 [Compound 14, 5-(4-chloro-2-{[2-(1,3,5-trimethylpyrazol-4-yl)ethyl]oxy}phenyl)-3-[(dimethylamino)methyl]pyrazolo[1,5-a]pyridine] | 1.98 nM | 18.4 nM |  |
| CCc1nn(C)c(C)c1CCOc1cc(Cl)ccc1-c1ccn2ncc(CN(C)C)c2c1 [Compound 15, 5-(4-chloro-2-{[2-(3-ethyl-1,5-dimethylpyrazol-4-yl)ethyl]oxy}phenyl)-3-[(dimethylamino)methyl]pyrazolo[1,5-a]pyridine] | 2.34 nM | 20.7 nM |  |
| Cc1c(CCOc2cc(Cl)ccc2-c2ccn3ncc(CN(C)C)c3c2)c(C(N)=O)nn1C [Compound 16, 4-{2-[(5-chloro-2-{3-[(dimethylamino)methyl]pyrazolo[1,5-a]pyridin-5-yl}phenyl)oxy]ethyl}-1,5-dimethylpyrazole-3-carboxamide] | 5.32 nM | 41.8 nM |  |

More lines, now with the values ahead:

| IC50 (NMT1 enzyme) | IC50 (MV-4-11 cells; Homo sapiens, MV4-11, 72 h) | IC50 (MV-4-11 cells) | Compound |
| --- | --- | --- | --- |
| 2.38 nM | 25.8 nM |  | CNC(=O)c1nn(C)c(C)c1CCOc1cc(Cl)ccc1-c1ccn2ncc(CN(C)C)c2c1 [Compound 17, 4-{2-[(5-chloro-2-{3-[(dimethylamino)methyl]pyrazolo[1,5-a]pyridin-5-yl}phenyl)oxy]ethyl}-1,5,N-trimethylp yrazole-3-carboxamide] |
| 2.97 nM | 30.2 nM |  | CCNC(=O)c1nn(C)c(C)c1CCOc1cc(Cl)ccc1-c1ccn2ncc(CN(C)C)c2c1 [Compound 18, 4-{2-[(5-chloro-2-{3-[(dimethylamino)methyl]pyrazolo[1,5-a]pyridin-5-yl}phenyl)oxy]ethyl}-N-ethyl-1,5-dime thylpyrazole-3-carboxamide] |
| 3.21 nM | 29.8 nM |  | CCN(C)C(=O)c1nn(C)c(C)c1CCOc1cc(Cl)ccc1-c1ccn2ncc(CN(C)C)c2c1 [Compound 19, 4-{2-[(5-chloro-2-{3-[(dimethylamino)methyl]pyrazolo[1,5-a]pyridin-5-yl}phenyl)oxy]ethyl}-N-ethyl-1,5,N-tri methylpyrazole-3-carboxamide] |
| 2.76 nM | 23.5 nM |  | CCN(CC)C(=O)c1nn(C)c(C)c1CCOc1cc(Cl)ccc1-c1ccn2ncc(CN(C)C)c2c1 [Compound 20, 4-{2-[(5-chloro-2-{3-[(dimethylamino)methyl]pyrazolo[1,5-a]pyridin-5-yl}phenyl)oxy]ethyl}-N,N-diethyl-1,5-dimethylpyrazole-3-carboxamide] |
| 1.61 nM | < 10 nM | 5.91 nM | CNCc1cnn2ccc(-c3ccc(F)c(F)c3OCCc3c(C(=O)N(C)C)nn(C)c3C)cc12 [Compound 21, 4-{2-[(2,3-difluoro-6-{3-[(methylamino)methyl]pyrazolo[1,5-a]pyridin-5-y 1}phenyl)oxy]ethyl}-1,5,N,N-tetramet hylpyrazole-3-carboxamide] |
| 1.89 nM | 10.6 nM |  | CNCc1cnn2ccc(-c3ccc(F)c(F)c3OCCc3c(C(=O)NC)nn(C)c3C)cc12 [Compound 22, 4-{2-[(2,3-difluoro-6-{3-[(methylamino)methyl]pyrazolo[1,5-a]pyridin-5-yl}phenyl)oxy]ethyl}-1,5,N-trimethylp yrazole-3-carboxamide] |
| 2.57 nM | 19.4 nM |  | CNCc1cnn2ccc(-c3ccc(F)c(F)c3OCCc3c(C)nn(C)c3C)cc12 [Compound 23, 5-(3,4-difluoro-2-{[2-(1,3,5-trimethylpyrazol-4-yl)ethyl]oxy}phenyl)-3-[(methylamino)methyl]pyrazolo[1,5-a]py ridine] |
